#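 Cells were grown in 96-well plates and exposed to each compound for 48 hours at five concentrations; endpoints were interpolated linearly between bracketing concentrations, or set to the highest concentration if not reached. GI50: concentration for 50% inhibition of growth.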 Active and inactive are the calls of the source. Rule as the data show it: active = GI50 up to about 1.1 µM and inactive = higher.
# Experiments:
# Assay in all cases: DTP human tumour cell line panel, 48 h
# 786-0 = tested on: 786-0
# A498 = tested on: A498
# A549 = tested on: A549
# ACHN = tested on: ACHN
# BT-549 = tested on: BT-549
# CAKI-1 = tested on: CAKI-1
# CCRF-CEM = tested on: CCRF-CEM
# COLO 205 = tested on: COLO 205
# DU-145 = tested on: DU-145
# EKVX = tested on: EKVX
# HCC 2998 = tested on: HCC 2998
# HCT-116 = tested on: HCT-116
# HCT-15 = tested on: HCT-15
# HOP-62 = tested on: HOP-62
# HOP-92 = tested on: HOP-92
# HT-29 = tested on: HT-29
# IGROV-1 = tested on: IGROV-1
# KM12 = tested on: KM12
# LOX IMVI = tested on: LOX IMVI
# M14 = tested on: M14
# MCF7 = tested on: MCF7
# MDA-MB-231 = tested on: MDA-MB-231
# MDA-MB-435 = tested on: MDA-MB-435
# MDA-N = tested on: MDA-N
# MOLT-4 = tested on: MOLT-4
# Malme-3M = tested on: Malme-3M
# NCI-H226 = tested on: NCI-H226
# NCI-H460 = tested on: NCI-H460
# NCI-H522 = tested on: NCI-H522
# NCI/ADR-RES = tested on: NCI/ADR-RES
# OVCAR-3 = tested on: OVCAR-3
# OVCAR-4 = tested on: OVCAR-4
# OVCAR-5 = tested on: OVCAR-5
# OVCAR-8 = tested on: OVCAR-8
# PC-3 = tested on: PC-3
# RPMI-8226 = tested on: RPMI-8226
# RXF 393 = tested on: RXF 393
# SF-268 = tested on: SF-268
# SF-295 = tested on: SF-295
# SK-MEL-28 = tested on: SK-MEL-28
# SK-MEL-2 = tested on: SK-MEL-2
# SK-MEL-5 = tested on: SK-MEL-5
# SK-OV-3 = tested on: SK-OV-3
# SN12C = tested on: SN12C
# SNB-19 = tested on: SNB-19
# SNB-75 = tested on: SNB-75
# SR = tested on: SR
# SW-620 = tested on: SW-620
# T47D = tested on: T47D
# TK-10 = tested on: TK-10
# U-251 = tested on: U-251
# UACC-257 = tested on: UACC-257
# UACC-62 = tested on: UACC-62
# UO-31 = tested on: UO-31
# HL-60 = tested on: HL-60
# Hs-578T = tested on: Hs-578T
# K562 = tested on: K562
# NCI-H23 = tested on: NCI-H23
# SF-539 = tested on: SF-539
smiles,measurement,setting,value
COc1cccc(C2SC(=N)Nc3c2c(C)nn3C(=O)c2ccccc2O)c1 (configuration not stated),GI50,786-0,> 3.79 µM (inactive)
same,GI50,A498,7.78 µM (inactive)
same,GI50,A549,1.75 µM (inactive)
same,GI50,ACHN,1.77 µM (inactive)
same,GI50,BT-549,> 10 µM (inactive)
same,GI50,CAKI-1,> 10 µM (inactive)
same,GI50,CCRF-CEM,> 3.21 µM (inactive)
same,GI50,COLO 205,> 6.4 µM (inactive)
same,GI50,DU-145,> 2.44 µM (inactive)
same,GI50,EKVX,> 9.14 µM (inactive)
same,GI50,HCC 2998,> 10 µM (inactive)
same,GI50,HCT-116,> 2.14 µM (inactive)
same,GI50,HCT-15,> 5.7 µM
same,GI50,HOP-62,> 7.1 µM (inactive)
same,GI50,HOP-92,> 2.08 µM (inactive)
same,GI50,HT-29,> 6.17 µM (inactive)
same,GI50,IGROV-1,> 2.11 µM (inactive)
same,GI50,KM12,> 2.79 µM (inactive)
same,GI50,LOX IMVI,> 4.26 µM (inactive)
same,GI50,M14,> 5.47 µM (inactive)
same,GI50,MCF7,> 3.11 µM (inactive)
same,GI50,MDA-MB-231,> 4.62 µM (inactive)
same,GI50,MDA-MB-435,1.76 µM (inactive)
same,GI50,MDA-N,> 2.28 µM (inactive)
same,GI50,MOLT-4,> 2.44 µM (inactive)
same,GI50,Malme-3M,0.581 µM (active)
same,GI50,NCI-H226,> 2.56 µM (inactive)
same,GI50,NCI-H460,3.22 µM (inactive)
same,GI50,NCI-H522,> 5.41 µM (inactive)
same,GI50,NCI/ADR-RES,> 3.78 µM (inactive)
same,GI50,OVCAR-3,> 3.65 µM (inactive)
same,GI50,OVCAR-4,> 2.88 µM (inactive)
same,GI50,OVCAR-5,> 6.73 µM (inactive)
same,GI50,OVCAR-8,> 2.76 µM (inactive)
same,GI50,PC-3,> 10 µM (inactive)
same,GI50,RPMI-8226,> 10 µM (inactive)
same,GI50,RXF 393,2.14 µM (inactive)
same,GI50,SF-268,> 4.32 µM (inactive)
same,GI50,SF-295,3.2 µM (inactive)
same,GI50,SK-MEL-28,> 10 µM (inactive)
same,GI50,SK-MEL-2,> 7.23 µM (inactive)
same,GI50,SK-MEL-5,> 6.53 µM (inactive)
same,GI50,SK-OV-3,> 7.5 µM (inactive)
same,GI50,SN12C,> 3.35 µM (inactive)
same,GI50,SNB-19,> 10 µM (inactive)
same,GI50,SNB-75,0.925 µM (active)
same,GI50,SR,> 3.21 µM (inactive)
same,GI50,SW-620,> 7.14 µM (inactive)
same,GI50,T47D,> 7.03 µM (inactive)
same,GI50,TK-10,> 2.78 µM (inactive)
same,GI50,U-251,> 2.65 µM (inactive)
same,GI50,UACC-257,2.68 µM (inactive)
same,GI50,UACC-62,1.76 µM (inactive)
same,GI50,UO-31,> 10 µM (inactive)
COc1ccc(CCc2nccn2C)cc1OC,GI50,786-0,> 100 µM (inactive)
same,GI50,A498,> 100 µM (inactive)
same,GI50,A549,> 100 µM (inactive)
same,GI50,ACHN,> 100 µM (inactive)
same,GI50,BT-549,> 100 µM (inactive)
same,GI50,CAKI-1,> 100 µM (inactive)
same,GI50,CCRF-CEM,> 100 µM (inactive)
same,GI50,COLO 205,> 100 µM (inactive)
same,GI50,EKVX,> 100 µM (inactive)
same,GI50,HCC 2998,> 100 µM (inactive)
same,GI50,HCT-116,> 100 µM (inactive)
same,GI50,HCT-15,> 100 µM
same,GI50,HL-60,> 100 µM (inactive)
same,GI50,HOP-62,> 100 µM (inactive)
same,GI50,HOP-92,> 100 µM (inactive)
same,GI50,HT-29,> 100 µM (inactive)
same,GI50,Hs-578T,> 100 µM (inactive)
same,GI50,IGROV-1,> 100 µM (inactive)
same,GI50,K562,> 100 µM (inactive)
same,GI50,LOX IMVI,> 100 µM (inactive)
same,GI50,M14,> 100 µM (inactive)
same,GI50,MCF7,> 100 µM (inactive)
same,GI50,MDA-MB-435,> 100 µM (inactive)
same,GI50,MDA-N,> 100 µM (inactive)
same,GI50,MOLT-4,> 100 µM (inactive)
same,GI50,Malme-3M,> 100 µM (inactive)
same,GI50,NCI-H23,> 100 µM (inactive)
same,GI50,NCI-H460,> 100 µM (inactive)
same,GI50,NCI/ADR-RES,> 100 µM (inactive)
same,GI50,OVCAR-3,> 100 µM (inactive)
same,GI50,OVCAR-4,> 100 µM (inactive)
same,GI50,OVCAR-5,> 100 µM (inactive)
same,GI50,OVCAR-8,> 100 µM (inactive)
same,GI50,PC-3,> 100 µM (inactive)
same,GI50,RPMI-8226,> 100 µM (inactive)
same,GI50,SF-268,> 100 µM (inactive)
same,GI50,SF-295,> 100 µM (inactive)
same,GI50,SF-539,> 100 µM (inactive)
same,GI50,SK-MEL-28,> 100 µM (inactive)
same,GI50,SK-MEL-2,> 100 µM (inactive)
same,GI50,SK-MEL-5,> 100 µM (inactive)
same,GI50,SK-OV-3,> 100 µM (inactive)
same,GI50,SN12C,> 100 µM (inactive)
same,GI50,SNB-19,> 100 µM (inactive)
same,GI50,SR,> 100 µM (inactive)
same,GI50,SW-620,> 100 µM (inactive)
same,GI50,TK-10,> 100 µM (inactive)
same,GI50,UACC-257,> 100 µM (inactive)
same,GI50,UACC-62,> 100 µM (inactive)
same,GI50,UO-31,> 100 µM (inactive)
Cc1ccc(-c2c(C#N)c(-c3ccc(Cl)cc3)c(C#N)c(=O)n2NS(=O)(=O)c2ccccc2)cc1,GI50,786-0,86.5 µM (inactive)
same,GI50,A498,86.7 µM (inactive)
same,GI50,A549,68.4 µM (inactive)
same,GI50,ACHN,46.9 µM (inactive)
same,GI50,BT-549,34.4 µM (inactive)
same,GI50,CAKI-1,37.2 µM (inactive)
same,GI50,CCRF-CEM,34.4 µM (inactive)
same,GI50,COLO 205,> 100 µM (inactive)
same,GI50,EKVX,77.4 µM (inactive)
same,GI50,HCC 2998,37.1 µM (inactive)
same,GI50,HCT-116,59 µM (inactive)
same,GI50,HCT-15,51.6 µM
same,GI50,HL-60,73.1 µM (inactive)
same,GI50,HOP-62,23.4 µM (inactive)
same,GI50,HOP-92,25.2 µM (inactive)
same,GI50,HT-29,> 100 µM (inactive)
same,GI50,Hs-578T,24.4 µM (inactive)
same,GI50,IGROV-1,33 µM (inactive)
same,GI50,K562,88.1 µM (inactive)
same,GI50,KM12,81.7 µM (inactive)
same,GI50,LOX IMVI,42.3 µM (inactive)
same,GI50,M14,> 100 µM (inactive)
same,GI50,MCF7,51.2 µM (inactive)
same,GI50,MDA-MB-231,> 100 µM (inactive)
same,GI50,MDA-MB-435,> 100 µM (inactive)
same,GI50,MDA-N,> 100 µM (inactive)
same,GI50,MOLT-4,55.2 µM (inactive)
same,GI50,Malme-3M,> 100 µM (inactive)
same,GI50,NCI-H226,77.3 µM (inactive)
same,GI50,NCI-H460,44.4 µM (inactive)
same,GI50,NCI-H522,38.1 µM (inactive)
same,GI50,NCI/ADR-RES,26.9 µM (inactive)
same,GI50,OVCAR-4,37.2 µM (inactive)
same,GI50,OVCAR-5,> 100 µM (inactive)
same,GI50,OVCAR-8,76.4 µM (inactive)
same,GI50,PC-3,29.9 µM (inactive)
same,GI50,RPMI-8226,18.4 µM (inactive)
same,GI50,RXF 393,32 µM (inactive)
same,GI50,SF-268,67 µM (inactive)
same,GI50,SF-295,60.8 µM (inactive)
same,GI50,SF-539,44.9 µM (inactive)
same,GI50,SK-MEL-28,> 100 µM (inactive)
same,GI50,SK-MEL-2,25.7 µM (inactive)
same,GI50,SK-MEL-5,31.9 µM (inactive)
same,GI50,SK-OV-3,> 100 µM (inactive)
same,GI50,SN12C,95.1 µM (inactive)
same,GI50,SNB-19,80.7 µM (inactive)
same,GI50,SNB-75,47.5 µM (inactive)
same,GI50,SW-620,> 100 µM (inactive)
same,GI50,TK-10,74.3 µM (inactive)
same,GI50,U-251,74.8 µM (inactive)
same,GI50,UACC-257,> 100 µM (inactive)
same,GI50,UACC-62,58.6 µM (inactive)

# Source: ChEMBL document CHEMBL1201862, “PubChem BioAssay data set” (2004)
